Here are results for five substances from patent publication US20110288154A1, “RNA Interference Mediated Inhibition of Epithelial Sodium Channel (ENaC) Gene Expression Using Short Interfering Nucleic Acid (siNA)” (MERCK & CO., INC., priority 2008, published 2011).

One data set concerns ENaCα mRNA. In words: Screening of ENaCα siNAs in human A549 cells (quantitative RT-PCR). Format: cell-based. Also on record: Percent Reduction of the ENaCα mRNA relative to a non-targeting control siNA (NTC): concentration or dose not given beside the values. Particulars: human A549 cells, n = 3; for Avg ENaCα Expression: 25 nM siNA with Lipofectamine 2000, harvested 24 hours post-transfection; for Mean (level of ENaCα expression normalized to the level of GAPDH) / Percent Reduction of the ENaCα mRNA relative to a non-targeting control siNA (NTC) / Avg GAPDH Expression: 24 hours post-transfection; for Avg GAPDH Expression: housekeeping gene used for normalisation. How it is done: siNA constructs (Table 1b) may be tested for efficacy in reducing ENaC RNA expression in, for example, A549 human lung carcinoma cells. A549 (human; ATCC cat# CCL-185) cells were cultured at 37° C. in the presence of 5% CO2 and grown in Ham's F12K medium with 2 mM L-glutamine adjusted to contain 1.5 g/L sodium bicarbonate and supplemented with fetal bovine serum at a final concentration of 10% and 100 U/mL penicillin. The A549 cells were plated approximately 24 hours before transfection in 96-well plates at 7,500 cells/well, 100 μl/well. After 24 hours complexes containing siNA and Lipofectamine 2000 (Invitrogen) were created as follows: a solution of Lipofectamine 2000 in OPTI-MEM was prepared containing Lipofectamine 2000 at a final concentration of 14 μg/ml. In parallel, solutions of the siNAs were prepared in OPTI-MEM at a final concentration of 150 nM. After both solutions were incubated at 20° C. for 20 minutes an equal volume of the siNA solutions and the Lipofectamine 2000 solution were added together for each of the siNAs. The resultant solution has the siNAs at a final concentration of 75 nM and Lipofectamine 2000 at a final concentration of 7 μg/ml. This solution was incubated at 20° C. for 20 minutes. After incubation 50 μl of the solution were added to each of the wells (in triplicate). The final concentration of siNA in each well was 25 nM and the final concentration of Lipofectamine 2000 in each well was 2.33 μg/ml. […] Dose response curves were determined in a similar manner with each concentration being done in triplicate and maintaining a constant amount of Lipofectamine 2000 in each transfection.
RNA was extracted from 96-well plates using the Invitek Invisorb RNA Cell HTS 96 Kit/C (Cat# 70619000) with a slightly modified protocol. The details of the protocol for isolating RNA from each plate are described as follows:
1) Aspirate media with rake 2) Add 150 ul/well Lysis buffer 3) Place on plate shaker for 1 minute 4) Place DNA binding plate on top of 0.5 ml collection plate 5) Pipette 190 ul up and down twice and add to DNA binding plate 6) Cover plate 7) Centrifuge plates 4 minutes at 4000 RPM 8) Discard DNA binding plate 9) Place the RNA binding plate on top of 2 ml collection plate 10) Add 150 ul/well of Binding Buffer R to 0.5 ml collection plate 11) Move contents of 0.5 ml collection plate to RNA binding plate 12) Let incubate for 1 minute 13) Centrifuge plates 4 minutes at 4000 RPM 14) Add 600 ul/well of Wash Buffer R1 to RNA binding plate 15) Centrifuge plates 4 minutes at 4000 RPM 16) Dump wash buffer from 2 ml collection plate 17) Add 400 ul/well of Wash Buffer R2 to RNA binding plate 18) Centrifuge plates 4 minutes at 4000 RPM 19) Add 400 ul/well of Wash Buffer R2 to RNA binding plate 20) Centrifuge plates 10 minutes at 4000 RPM 21) Dump wash buffer from 2 ml collection plate 22) Centrifuge plates 3 minutes at 4000 RPM 23) Discard 2 ml collection plate and place RNA binding plate on to microtiter plate 24) Add 100 ul/well of elution buffer to RNA binding plate 25) Incubate for 2 minutes 26) Seal plate 27) Centrifuge plates 3 minutes at 4000 RPM 28) Discard RNA binding plate 29) Cover microtiter plate for storage in −80 freezer
A series of probes and primers were used to detect the various mRNA transcripts of the genes of ENaCa and GAPDH in mouse, rat, and human cell lines. The assays were performed on an ABI 7500 instrument, according to the manufacturer's instructions. Within each experiment, the baseline was set in the exponential phase of the amplification curve, and based on the intersection point of the baselines with the amplification curve, a Ct value was assigned by the instrument. This Ct value was then assigned a QTY value based on the Standard Curve. The standard curve in the various experiments herein used 1 ng to 300 ng of RNA extracted from the same cell line used for the experimental transfections. […]

In the next data set the test system is rSCNN1A (r ENaCα) mRNA. The experiment in a line: Screening of ENaCα siNAs in Rat H-4-II-E cells (quantitative RT-PCR). Format: cell-based. The arrangement: Percent Reduction of the r ENaCα mRNA relative to a non-targeting control siNA (NTCs) / Rat % KD (efficacy of ENaCα mRNA knockdown): concentration or dose not given beside the values. The settings on record: Rat H-4-II-E cells, n = 3; for Mean (rSCNN1A expression normalized to the level of rGAPDH) / Percent Reduction of the r ENaCα mRNA relative to a non-targeting control siNA (NTCs) / Avg GAPDH Expression (rGAPDH): 24 hours post-transfection; for Avg ENaCα Expression (rSCNN1A): harvested 24 hours post-transfection; for Avg GAPDH Expression (rGAPDH): housekeeping gene used for normalisation. How it is done:
A series of probes and primers were used to detect the various mRNA transcripts of the genes of ENaCa and GAPDH in mouse, rat, and human cell lines. The assays were performed on an ABI 7500 instrument, according to the manufacturer's instructions. Within each experiment, the baseline was set in the exponential phase of the amplification curve, and based on the intersection point of the baselines with the amplification curve, a Ct value was assigned by the instrument. This Ct value was then assigned a QTY value based on the Standard Curve. The standard curve in the various experiments herein used 1 ng to 300 ng of RNA extracted from the same cell line used for the experimental transfections.
All IC50 values were calculated from the data using GraphPad Prizm software, specifically a sigmoidal, variable slope curve for simple ligand binding. Also, unless otherwise indicated, all calculations of the efficacy and potency (e.g., % knockdown) of the siNAs were done relative to a non-targeting control siNA. If reported, P-values were computed using The Students t-test, including the Welch Correction for unequal variances.
In all of the calculations of the % knock-down of mRNA, the calculation was made relative to the normalized level of expression of the gene of interest in the samples treated with the non-targeting control (NTC) unless otherwise indicated. The gene of interest expression level was divided by the level of expression of GAPDH or 36B4 (depending on the species) in each sample. The three replicates for each condition in each experiment were averaged and the standard deviation of those samples was calculated. The following formula was then used to calculate the % of knock-down of the gene of interest:
The ENaCα siNAs were designed and synthesized as described previously. The siNAs were screened in three cell lines. Human A549 cells, mouse NIH 3T3 and Rat H-4-II-E cells. The data from the screen of ENaCa siNAs in all three species is shown in Tables 3a, 3b, 4a, 4b, 5a, and 5b and a summary of the data for certain siNA molecules is presented in Table 6. Each screen was performed at 24 hrs. The decision to use this time point was based upon the degree of knockdown of the mRNA seen at that time point.

[invAb] = inverted abasic unit; m = 2'-O-methyl; r = 2'-OH (RNA); f = 2'-fluoro

“B ccAuccGccuGGuGuGcuc TTB / GAGcAcAccAGGcGGAuGGUU (chain 1 CCAUCCGCCUGGUGUGCUCTT; chain 2 GAGCACACCAGGCGGAUGGUU; siRNA; chain 1: DNA at AGT, 2'-fluoro at CU, [invAb] at 5' end, 3' end, backbone not given here; chain 2: sugars from the 5' end rrrfmfmffmmmfmmmfmmmm, backbone not given here) [Site 311]”: in the data set on ENaCα mRNA, the “Avg ENaCα Expression” value turned out to be 65.43, the “Mean (level of ENaCα expression normalized to the level of GAPDH)” value was 1.29, the “Percent Reduction of the ENaCα mRNA relative to a non-targeting control siNA (NTC)” value was 17.0% and the “Avg GAPDH Expression” value was found to be 53.29. In the data set on rSCNN1A (r ENaCα) mRNA, the “Mean (rSCNN1A expression normalized to the level of rGAPDH)” value is 0.83, the “Percent Reduction of the r ENaCα mRNA relative to a non-targeting control siNA (NTCs)” value was 35.2%, the “Avg ENaCα Expression (rSCNN1A)” value was found to be 16.42 and the “Avg GAPDH Expression (rGAPDH)” value stood at 19.71.

For “B uccuGuccAAccuGGGcAG TTB / CUGcccAGGuuGGAcAGGAUU (sense UCCUGUCCAACCUGGGCAGTT; antisense CUGCCCAGGUUGGACAGGAUU; siRNA; sense: DNA at AGT, 2'-fluoro at CU, [invAb] at 5' end, 3' end, backbone not given here; antisense: sugars from the 5' end rrrfffmmmffmmmfmmmmmm, backbone not given here) [Site 1739]”, in the data set on ENaCα mRNA, the “Avg ENaCα Expression” value is reported as 75.77, the “Mean (level of ENaCα expression normalized to the level of GAPDH)” value was 0.75, the “Percent Reduction of the ENaCα mRNA relative to a non-targeting control siNA (NTC)” value is −13.8% and the “Avg GAPDH Expression” value was 100.60. Besides, in the data set on rSCNN1A (r ENaCα) mRNA, the “Mean (rSCNN1A expression normalized to the level of rGAPDH)” value was 1.00, the “Percent Reduction of the r ENaCα mRNA relative to a non-targeting control siNA (NTCs)” value is recorded as −8.7%, the “Avg ENaCα Expression (rSCNN1A)” value was 32.26 and the “Avg GAPDH Expression (rGAPDH)” value is given as 35.80.

As to “B AGccAGuGGAGccuGuGGu TTB / ACCAcAGGcuccAcuGGcuUU (sense AGCCAGUGGAGCCUGUGGUTT; antisense ACCACAGGCUCCACUGGCUUU; siRNA; sense: DNA at AGT, 2'-fluoro at CU, [invAb] at 5' end, 3' end, backbone not given here; antisense: sugars from the 5' end rrrmfmmmffffmffmmffmm, backbone not given here) [Site 1756]”, in the data set on ENaCα mRNA, the “Avg ENaCα Expression” value is reported as 73.20, the “Mean (level of ENaCα expression normalized to the level of GAPDH)” value is recorded as 0.71, the “Percent Reduction of the ENaCα mRNA relative to a non-targeting control siNA (NTC)” value is −8.2% and the “Avg GAPDH Expression” value came out at 102.64. Further, in the data set on rSCNN1A (r ENaCα) mRNA, the “Mean (rSCNN1A expression normalized to the level of rGAPDH)” value is recorded as 0.57, the “Percent Reduction of the r ENaCα mRNA relative to a non-targeting control siNA (NTCs)” value was 38.3%, the “Avg ENaCα Expression (rSCNN1A)” value worked out at 23.08 and the “Avg GAPDH Expression (rGAPDH)” value turned out to be 40.27.

As for “B GGcuGuGccuAcAucuucu TTB / AGAAGAuGucGGcAcAGccUU (sense GGCUGUGCCUACAUCUUCUTT; antisense AGAAGAUGUCGGCACAGCCUU; siRNA; sense: DNA at AGT, 2'-fluoro at CU, [invAb] at 5' end, 3' end, backbone not given here; antisense: sugars from the 5' end rrrmmmfmffmmfmfmmffmm, backbone not given here) [Site 1387]”, in the data set with ENaCα mRNA, the “Avg ENaCα Expression” value is 46.10, the “Mean (level of ENaCα expression normalized to the level of GAPDH)” value is reported as 0.43, the “Percent Reduction of the ENaCα mRNA relative to a non-targeting control siNA (NTC)” value was found to be 34.2% and the “Avg GAPDH Expression” value was determined as 106.19. In addition, in the data set with rSCNN1A (r ENaCα) mRNA, the “Mean (rSCNN1A expression normalized to the level of rGAPDH)” value turned out to be 0.71, the “Percent Reduction of the r ENaCα mRNA relative to a non-targeting control siNA (NTCs)” value is 23.3%, the “Avg ENaCα Expression (rSCNN1A)” value was determined as 24.12 and the “Avg GAPDH Expression (rGAPDH)” value amounted to 34.37.

With “B uGuccAAccuGGGcAGccA TTB / UGGcuGcccAGGuuGGAcAUU (sense UGUCCAACCUGGGCAGCCATT; antisense UGGCUGCCCAGGUUGGACAUU; siRNA; sense: DNA at AGT, 2'-fluoro at CU, [invAb] at 5' end, 3' end, backbone not given here; antisense: sugars from the 5' end rrrffmfffmmmffmmmfmmm, backbone not given here) [Site 1742]”, in the data set on ENaCα mRNA, the “Avg ENaCα Expression” value was 58.12, the “Mean (level of ENaCα expression normalized to the level of GAPDH)” value came out at 0.53, the “Percent Reduction of the ENaCα mRNA relative to a non-targeting control siNA (NTC)” value worked out at 19.7% and the “Avg GAPDH Expression” value is 109.65. Besides, in the data set with rSCNN1A (r ENaCα) mRNA, the “Mean (rSCNN1A expression normalized to the level of rGAPDH)” value was 0.79, the “Percent Reduction of the r ENaCα mRNA relative to a non-targeting control siNA (NTCs)” value was 14.3%, the “Avg ENaCα Expression (rSCNN1A)” value was 28.30 and the “Avg GAPDH Expression (rGAPDH)” value worked out at 35.68.
